In a compilation of properties of binary mixtures (doi:10.1016/j.fluid.2015.05.023):

Test: xn = mol fraction of the nth substance listed
Conditions: 100 kPa

CCCCn1cc[n+](CCCC)c1.O=S(=O)([N-]S(=O)(=O)C(F)(F)F)C(F)(F)F + O
x2 = 0.1843
Conditions | viscosity [mPa·s]
298.15 K | 48.47
303.15 K | 39.12
313.15 K | 26.74
318.15 K | 22.52
323.15 K | 19.19
328.15 K | 16.51
333.15 K | 14.32
338.15 K | 12.53
343.15 K | 11.04
348.15 K | 9.78
353.15 K | 8.73

CCCCCCn1cc[n+](CCCCCC)c1.O=S(=O)([N-]S(=O)(=O)C(F)(F)F)C(F)(F)F + O
x2 = 0.1489
Conditions | viscosity [mPa·s]
298.15 K | 83.49
308.15 K | 52.59
313.15 K | 42.72
318.15 K | 35.17
323.15 K | 29.31
333.15 K | 21.02
338.15 K | 18.06
343.15 K | 15.65
348.15 K | 13.67
353.15 K | 12
358.15 K | 10.63
363.15 K | 9.466

CCCCCCCn1cc[n+](CCCCCCC)c1.O=S(=O)([N-]S(=O)(=O)C(F)(F)F)C(F)(F)F + O
x2 = 0.1365
Conditions | viscosity [mPa·s]
298.15 K | 100.8
303.15 K | 78.57
308.15 K | 62.48
313.15 K | 50.44
318.15 K | 41.29
323.15 K | 34.22
328.15 K | 28.65
333.15 K | 24.25
338.15 K | 20.67
343.15 K | 17.8
348.15 K | 15.46
353.15 K | 13.51
358.15 K | 11.9
363.15 K | 10.53

CCCn1cc[n+](C)c1.O=S(=O)([N-]S(=O)(=O)C(F)(F)F)C(F)(F)F + O
x2 = 0.272
Conditions | viscosity [mPa·s]
298.15 K | 26.63
303.15 K | 22.24
313.15 K | 16.12
328.15 K | 10.73
333.15 K | 9.52
338.15 K | 8.5
348.15 K | 6.9
358.15 K | 5.69
363.15 K | 5.22

CCCCCCCCn1cc[n+](CCCCCCCC)c1.O=S(=O)([N-]S(=O)(=O)C(F)(F)F)C(F)(F)F + O
x2 = 0.1246
Conditions | viscosity [mPa·s]
298.15 K | 120.2
313.15 K | 58.75
318.15 K | 47.76
323.15 K | 39.33
328.15 K | 32.75
333.15 K | 27.56
338.15 K | 23.43
343.15 K | 20.09
348.15 K | 17.37
353.15 K | 15.13
363.15 K | 11.72

CCCC[n+]1ccn(C)c1.O=S(=O)([N-]S(=O)(=O)C(F)(F)F)C(F)(F)F + O
x2 = 0.257
Conditions | viscosity [mPa·s]
298.15 K | 31.31
303.15 K | 25.93
308.15 K | 21.78
313.15 K | 18.52
318.15 K | 15.92
323.15 K | 13.82
328.15 K | 12.1
338.15 K | 9.475
348.15 K | 7.629
358.15 K | 6.275
363.15 K | 5.73

CCCCCCC[n+]1ccn(C)c1.O=S(=O)([N-]S(=O)(=O)C(F)(F)F)C(F)(F)F + O
x2 = 0.1971
Conditions | viscosity [mPa·s]
298.15 K | 52.98
303.15 K | 42.58
313.15 K | 28.95
328.15 K | 17.77
333.15 K | 15.4
338.15 K | 13.45
343.15 K | 11.85
348.15 K | 10.51
353.15 K | 9.36
363.15 K | 7.58

CC[n+]1ccn(C)c1.O=S(=O)([N-]S(=O)(=O)C(F)(F)F)C(F)(F)F + O
x2 = 0.298
Conditions | viscosity [mPa·s]
298.15 K | 18.97
308.15 K | 14.06
318.15 K | 10.83
323.15 K | 9.63
328.15 K | 8.615
338.15 K | 7.02
343.15 K | 6.382
348.15 K | 5.832
353.15 K | 5.35
358.15 K | 4.926
363.15 K | 4.549

Cn1cc[n+](C)c1.O=S(=O)([N-]S(=O)(=O)C(F)(F)F)C(F)(F)F + O
x2 = 0.3548
Conditions | viscosity [mPa·s]
298.15 K | 18.59
303.15 K | 15.87
308.15 K | 13.73
313.15 K | 11.99
318.15 K | 10.57
323.15 K | 9.39
328.15 K | 8.39
333.15 K | 7.55
338.15 K | 6.84
343.15 K | 6.22
348.15 K | 5.69
353.15 K | 5.23
358.15 K | 4.82
363.15 K | 4.46

CCCCCn1cc[n+](CCCCC)c1.O=S(=O)([N-]S(=O)(=O)C(F)(F)F)C(F)(F)F + O
x2 = 0.1575
Conditions | viscosity [mPa·s]
298.15 K | 66.87
303.15 K | 53.1
308.15 K | 42.91
318.15 K | 29.21
323.15 K | 24.56
328.15 K | 20.86
333.15 K | 17.88
343.15 K | 13.46
348.15 K | 11.83
353.15 K | 10.46
363.15 K | 8.34

CCCCCn1cc[n+](C)c1.O=S(=O)([N-]S(=O)(=O)C(F)(F)F)C(F)(F)F + O
x2 = 0.2211
Conditions | viscosity [mPa·s]
298.15 K | 38.65
303.15 K | 31.67
308.15 K | 26.32
323.15 K | 16.22
328.15 K | 14.08
333.15 K | 12.32
338.15 K | 10.87
343.15 K | 9.65
348.15 K | 8.63
353.15 K | 7.75
358.15 K | 7
363.15 K | 6.36

CCCCCCCCCn1cc[n+](C)c1.O=S(=O)([N-]S(=O)(=O)C(F)(F)F)C(F)(F)F + O
x2 = 0.1736
Conditions | viscosity [mPa·s]
303.15 K | 57.66
313.15 K | 39.1
328.15 K | 22.64
333.15 K | 19.7
338.15 K | 16.81
343.15 K | 14.67
348.15 K | 12.89
353.15 K | 11.68

CCn1cc[n+](CC)c1.O=S(=O)([N-]S(=O)(=O)C(F)(F)F)C(F)(F)F + O
x2 = 0.2772
Conditions | viscosity [mPa·s]
298.15 K | 19.32
303.15 K | 16.55
308.15 K | 14.34
313.15 K | 12.53
323.15 K | 9.8
328.15 K | 8.75
333.15 K | 7.87
338.15 K | 7.11
343.15 K | 6.46
348.15 K | 5.89
353.15 K | 5.39
363.15 K | 4.57

CCCn1cc[n+](CCC)c1.O=S(=O)([N-]S(=O)(=O)C(F)(F)F)C(F)(F)F + O
x2 = 0.2232
Conditions | viscosity [mPa·s]
298.15 K | 35.66
308.15 K | 24.31
318.15 K | 17.47
323.15 K | 15.05
328.15 K | 13.09
338.15 K | 10.15
343.15 K | 9.03
353.15 K | 7.29
358.15 K | 6.6

CCCCCCCCCCCn1cc[n+](C)c1.O=S(=O)([N-]S(=O)(=O)C(F)(F)F)C(F)(F)F + O
x2 = 0.1567
Conditions | viscosity [mPa·s]
298.15 K | 96.4
303.15 K | 75.7
308.15 K | 60.46
313.15 K | 49.36
318.15 K | 40.26
323.15 K | 33.49
328.15 K | 28.17
333.15 K | 24.19
343.15 K | 17.77
348.15 K | 15.5
353.15 K | 13.94
358.15 K | 12.05
363.15 K | 10.72
